# Experiments:
# caspase 3 = test: Active caspase 3 staining with Red-DEVD-fmk, KO99L cells; type: cell-based, murine; details: countered by QvD-OPH
# Protocol: Cells (1.0±0.1×10^6 per well; 1.0 mL) were stimulated with different COMPOUND-JP doses with or without caspase3 inhibitor Qvd-OH (20 μM). Cells were then stained with caspase 3 inhibitor conjugated (RED-DEVD-FMK; Biovision) and incubated (1.0 h, 37° C. at 5% CO2). Cells were washed with Wash Buffer, then centrifuged (3000 rpm, 5.0 min) and stained with annexin V-FITC (10 μL/mL; Miltenyi Biotech) for 30 min and DAPI (1.0 μg/mL) added prior to examination via a MacsQuant Analyser.
# KO99-S cells = test: Cell death (PI staining) of parental KO99-S cells; type: cell-based, murine; details: 48 h
# primary tPTEN−/− cells = test: Cell death of primary tPTEN−/− lines, PI staining and Facs; type: cell-based, murine; details: 2.5-20.0 μM, 48 h, five primary tumors
# tPTEN−/− cells = test: Global protein synthesis (data not shown); type: cell-based, murine
# LC3 = test: Western blot of LC3 processing (autophagy), KO99L cells; type: cell-based, murine; details: 10.0 μM
# Protocol: Cell extracts were prepared using a cell lysis buffer (50 mM HEPES, pH 7.4, 150 mM NaCl, 20 mM EDTA, 100 mM NaF, 10 mM Na3VO4, 0.5% nonyl phenoxypolyethoxylethanol (NP40) supplemented with a cocktail of protease inhibitors. After SDS-PAGE separation and transfer to nitrocellulose immunoblotting was performed using the following antibodies against: Akt (Cell Signaling Technologies, #9272), CHOP (#2895), cleaved caspase 3 (#9664), c-Myc (#9402), eIF2a (#9721), 4EBP1 (#9644), LC3A/B (#12741), PARP (#9542), pJnk (T183/Y185) (#9251), pSer235-236-S6RP (#4856), pSer473-Akt (#9271), pSer65-4EBP1 (#9451) and S6RP (#2217); Bax (Sigma-Aldrich, B8429); PUMA (Abcam, ab54288); Bak (Millipore, 06536); ATF4 (Santa Cruz Biotechnologies, sc200), GADD34 (sc8327), Hsp60 (sc-1722), Hsp90 (sc-13119) and XBP1 (sc-7160); ATF6 (Imgenex, IMG-273).
# [1] = tested on: normal resting or activated human PBL cells; test: Cell death analysis of resting or activated human PBL; type: cell-based
# [2] = tested on: normal cord blood mononuclear cells; test: Viability of normal human cord blood mononuclear cells (DAPI, Facs); type: cell-based; details: 5.0 and 10.0 μM, 48 h
smiles,measurement,setting,value
"Nc1cc(COc2c(Cl)cc(C[C@H](N)C(=O)O)cc2Cl)c2oc(-c3ccccc3)nc2c1 [COMPOUND-JP, O-(5-amino-2-phenylbenzoxazole-7-yl)methyl-3,5-dichloro-L-tyrosine]",cell-associated fluorescence via Red-DEVD-fmk (caspase 3 activation),caspase 3,dose and time-dependent
same,cell death,KO99-S cells,concentration dependent cell death
same,cell death in primary tPTEN−/− cells,primary tPTEN−/− cells,dose dependent
same,interference with global protein synthesis,tPTEN−/− cells,did not observe any interference
same,LC3-II accumulation,LC3,stimulated LC3-II accumulation
same,cell death,[1],did not induce cell death
same,normal cord blood mononuclear cells (living cells),[2],did not significantly alter
